{
  "source": "patent US4983616A",
  "about": "“Hexahydropyrrolo(2,3-B)indole carbamates, ureas, amides and related compounds” (priority 1990, dated 1991)",
  "key": {"[1]": {"target": "T1, Brain AChE (acetylcholinesterase, rat striatum) (Rattus norvegicus, UniProt P37136)", "T1 construct": "corpora striata dissected free, weighed and homogenized in 19 volumes; from tissue; host or cells: corpora striata of male Wistar rats, whole homogenate", "T1 sequence (P37136 32-614)": "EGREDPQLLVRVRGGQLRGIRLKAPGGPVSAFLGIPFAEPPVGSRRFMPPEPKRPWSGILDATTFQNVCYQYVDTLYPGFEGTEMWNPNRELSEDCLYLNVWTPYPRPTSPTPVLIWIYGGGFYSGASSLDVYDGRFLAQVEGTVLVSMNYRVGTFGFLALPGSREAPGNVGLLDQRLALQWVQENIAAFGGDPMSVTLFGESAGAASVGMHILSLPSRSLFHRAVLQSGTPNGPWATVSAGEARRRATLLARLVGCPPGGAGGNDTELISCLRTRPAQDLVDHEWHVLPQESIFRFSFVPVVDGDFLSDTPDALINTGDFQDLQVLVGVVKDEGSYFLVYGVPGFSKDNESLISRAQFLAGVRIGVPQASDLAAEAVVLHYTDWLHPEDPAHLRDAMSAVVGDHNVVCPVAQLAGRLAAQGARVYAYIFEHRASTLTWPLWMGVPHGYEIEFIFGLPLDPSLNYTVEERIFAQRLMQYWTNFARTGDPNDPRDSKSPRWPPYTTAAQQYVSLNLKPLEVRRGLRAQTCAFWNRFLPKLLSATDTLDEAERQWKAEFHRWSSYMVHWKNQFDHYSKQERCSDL", "assay": "In Vitro Inhibition of Acetylcholinesterase Activity in Rat Striatum", "format": "biochemical, rat (male Wistar)", "procedure": "Cholinesterases are found throughout the body, both in the brain and in serum. However, only brain acetylcholinesterase (AChE) distribution is correlated with central cholinergic innervation.\nIn Vitro Inhibition of Acetylcholinesterase Activity in Rat Striatum\nThe method described below was used in this invention for assaying cholinesterase activity.\n1. 0.05M Phosphate buffer, pH 7.2\n(a) 6.85 g NaH2 PO4 .cndot.H2 O/100 ml distilled H2 O\n(c) add (a) to (b) until pH reaches 7.2\n(a) 9.9 mg 5,5-dithiobisnitrobenzoic acid (DTNB) (0.25 mM)\n(b) 99 mg s-acetylthiocholine chloride (5 mM)\n(c) q.s. to 100 ml with 0.05M phosphate buffer, pH 7.2 (reagent 1)\n3. […]\nFollowing the 10 minute preincubation of the tissue (enzyme) with the inhibitor, the samples are mixed with the substrate chromogen buffer by the ABA-100. Using the indicated instrument settings the ABA-100 automatically reads the color reaction and prints out the results in enzyme units after 15 minutes.\n2. The enzyme activity can also be measured with Gilford 250 spectrophotometer. […]\nThe uninhibited activity of the enzyme (tissue homogenate) is first determined. […] The reaction rate is determined by the slope of the recorded absorbance change. […]"}, "[2]": {"tested_on": "Scopolamine Induced Memory Deficit", "format": "in vivo, mice", "procedure": "In this assay mice are tested for their ability to remember an unpleasant stimulus for a period of 24 hours. A mouse is placed in a chamber that contains a dark compartment; a strong incandescent light drives it to the dark compartment, where an electric shock is administered through metal plates on the floor. The animal is removed from the testing apparatus and tested again, 24 hours later, for the ability to remember the electric shock.\nIf scopolamine, an anticholinergic that is known to cause memory impairment, is administered before an animal's initial exposure to the test chamber, the animal re-enters the dark compartment shortly after being placed in the test chamber 24 hours later. This effect of scopolamine is blocked by an active test compound, resulting in a greater interval before re-entry into the dark compartment.\nThe results for an active compound are expressed as the percent of a group of animals in which the effect of scopolamine is blocked, as manifested by an increased interval between being placed in the test chamber and re-entering the dark compartment.\nResults of this assay for some of the compounds of this invention and those for tacrine and pilocarpine (reference compounds) are presented in Table 2."}, "[3]": {"settings": "0.31 mg/kg of body weight, s.c, mice, 24 hours"}, "[4]": {"settings": "5.0 mg/kg of body weight, s.c, mice, 24 hours"}},
  "note": "pIC50: −log10 of the molar value. Where a name gives a salt, the structure may show the parent alone. Read-outs that look alike come from different tables or passages of the source.",
  "data": [
    {"smiles": "CN1CCC2(C)c3cc(NC(=O)Oc4ccccc4)ccc3N(C)C12.O=C(O)C(=O)O", "note": "(stereo not shown) [1,2,3,3a,8,8a-Hexahydro-5-(phenoxycarbonylamino)-1,3a,8-trimethylpyrrolo[2,3-b]indole oxalate]", "values": [
      {"measurement": "pIC50", "setting": "[1]", "result": 4.85},
      {"measurement": "% of Animals with Scopolamine Induced Memory Deficit Reversal", "setting": "[2]; [3]", "result": 40, "unit": "%"},
      {"measurement": "% of Animals with Scopolamine Induced Memory Deficit Reversal", "setting": "[2]; 1.16 mg/kg of body weight, s.c, mice, 24 hours", "result": 53, "unit": "%"},
      {"measurement": "% of Animals with Scopolamine Induced Memory Deficit Reversal", "setting": "[2]; [4]", "result": 21, "unit": "%"}
    ]},
    {"smiles": "CN1CCC2(C)c3cc(NC(=O)Oc4ccc(Cl)cc4)ccc3N(C)C12", "note": "(stereo not shown) [5-(4-Chlorophenoxycarbonylamino)-1,2,3,3a,8,8a-hexahydro-1,3a,8-trimethylpyrrolo[2,3-b]indole oxalate]", "values": [
      {"measurement": "pIC50", "setting": "[1]", "result": 5.96}
    ]},
    {"smiles": "CN1CCC2(C)c3cc(NC(=O)OCc4ccccc4)ccc3N(C)C12", "note": "(stereo not shown) [5-(Benzoxycarbonylamino)-1,2,3,3a,8,8a-hexahydro-1,3a,8-trimethylpyrrolo[2,3-b]indole]", "values": [
      {"measurement": "% of Animals with Scopolamine Induced Memory Deficit Reversal", "setting": "[2]; 0.3 mg/kg of body weight, s.c, mice, 24 hours", "result": 28, "unit": "%"},
      {"measurement": "% of Animals with Scopolamine Induced Memory Deficit Reversal", "setting": "[2]; 1.0 mg/kg of body weight, s.c, mice, 24 hours", "result": 21, "unit": "%"},
      {"measurement": "% of Animals with Scopolamine Induced Memory Deficit Reversal", "setting": "[2]; 3.0 mg/kg of body weight, s.c, mice, 24 hours", "result": 21, "unit": "%"}
    ]},
    {"smiles": "CN1CCC2(C)c3cc(NC(=O)OC(C)(C)C)ccc3N(C)C12.O=C(O)C(=O)O", "note": "(stereo not shown) [5-(t-Butoxycarbonylamino)-1,2,3,3a,8,8a-hexahydro-1,3a,8-trimethylpyrrolo[2,3-b]indole oxalate]", "values": [
      {"measurement": "% of Animals with Scopolamine Induced Memory Deficit Reversal", "setting": "[2]; [3]", "result": 33, "unit": "%"},
      {"measurement": "% of Animals with Scopolamine Induced Memory Deficit Reversal", "setting": "[2]; 1.25 mg/kg of body weight, s.c, mice, 24 hours", "result": 20, "unit": "%"},
      {"measurement": "% of Animals with Scopolamine Induced Memory Deficit Reversal", "setting": "[2]; [4]", "result": 27, "unit": "%"}
    ]},
    {"smiles": "CC[C@@H]1C(=O)OC[C@@H]1Cc1cncn1C", "note": "[Pilocarpine, reference compound]", "values": [
      {"measurement": "% of Animals with Scopolamine Induced Memory Deficit Reversal", "setting": "[2]; [4]", "result": 13, "unit": "%"}
    ]},
    {"smiles": "Nc1c2c(nc3ccccc13)CCCC2", "note": "[Tacrine, reference compound]", "values": [
      {"measurement": "% of Animals with Scopolamine Induced Memory Deficit Reversal", "setting": "[2]; mouse, in vivo", "result": 13, "unit": "%"}
    ]}
  ]
}
